Source: patent US20230159453A1 (COCRYSTAL PHARMA, INC., priority 2020, published 2023)

These compounds were tested against SARS2 protease (Severe acute respiratory syndrome coronavirus 2, UniProt P0DTD1) (assay: SARS-CoV-2 protease inhibition assay (SARS2 FRET protease assay)). Settings: SARS-CoV-2 protease 25 nM, FRET, peptide substrate 1.3 μM, 30 minutes at 30° C., compounds 20 μM to 1.0 nM; read-out: IC50.
Type: biochemical
`O=C(N[C@@H](CC1CCCCC1)C(=O)N[C@@H](C[C@@H]1CCNC1=O)C(=O)C(=O)NC1CC1)OCc1cccc(Cl)c1` [Compound C154, 3-Chlorobenzyl ((S)-3-cyclohexyl-1-(((S)-4-(cyclopropylamino)-3,4-dioxo-1-((S)-2-oxopyrrolidin-3-yl)butan-2-yl)amino)-1-oxopropan-2-yl)carbamate] showed an IC50 of 1480 nM.
Compound `CC1(C)CC(CC(NC(=O)[C@H](CC2CCCCC2)NC(=O)OC(Cc2cccc(Cl)c2)c2ccccc2)C(=O)C(=O)NC2CC2)C(=O)N1` (stereo partly drawn) [Compound C155, 2-(3-Chlorophenyl)-1-phenylethyl ((2S)-3-cyclohexyl-1-((4-(cyclopropylamino)-1-(5,5-dimethyl-2-oxopyrrolidin-3-yl)-3,4-dioxobutan-2-yl)amino)-1-oxopropan-2-yl) carbamate] has an IC50 of 1560 nM.
With `CC1(C)CC(C[C@@H](C=O)NC(=O)[C@H](CC2CCCCC2)NC(=O)OC2CCCC2Cc2cccc(Cl)c2)C(=O)N1` (stereo partly drawn) [Compound C156, 2-(3-Chlorobenzyl)cyclopentyl ((2S)-3-cyclohexyl-1-((1-(5,5-dimethyl-2-oxopyrrolidin-3-yl)-3-oxopropan-2-yl)amino)-1-oxopropan-2-yl)carbamate] the IC50 was 52.8 nM.
`CCCC[C@H](NC(=O)OC(c1ccccc1)C(C)(C)c1cccc(Cl)c1)C(=O)N[C@H](C=O)C[C@@H]1CCNC1=O` (stereo partly drawn) [Compound C157, 2-(3-Chlorophenyl)-2-methyl-1-phenylpropyl ((S)-1-oxo-1-(((S)-1-oxo-3-((S)-2-oxopyrrolidin-3-yl)propan-2-yl)amino)hexan-2-yl) carbamate] was tested, and the IC50 was 0.1 nM.
Compound `O=C(N[C@@H](CC1CCCCC1)C(=O)N[C@@H](C[C@@H]1CCNC1=O)C(=O)C(=O)NC1CC1)OC(Cc1cccc(Cl)c1)c1ccccc1` (stereo partly drawn) [Compound C158] has an IC50 of 2610 nM.
Work on `O=C(N[C@@H](CC1CCCCC1)C(=O)N[C@@H](C[C@@H]1CC2(CCCC2)NC1=O)C(=O)C(=O)NC1CC1)OC1CCCC1Cc1cccc(Cl)c1` (stereo partly drawn) [Compound C159, 2-(3-Chlorobenzyl)cyclopentyl ((2S)-3-cyclohexyl-1-((4-(cyclopropylamino)-3,4-dioxo-1-(2-oxo-1-azaspiro[4.4]nonan-3-yl)butan-2-yl)amino)-1-oxopropan-2-yl)carbamate] yielded an IC50 of 3490 nM.
`CC(C)(c1cccc(Cl)c1)C(OC(=O)N[C@@H](CC1CCCCC1)C(=O)N[C@H](C=O)C[C@@H]1CCNC1=O)c1ccccc1Cl` (stereo partly drawn) [Compound C160, 1-(2-chlorophenyl)-2-(3-chlorophenyl)-2-methylpropyl ((S)-3-cyclohexyl-1-oxo-1-(((S)-1-oxo-3-((S)-2-oxopyrrolidin-3-yl)propan-2-yl)amino)propan-2-yl) carbamate] showed an IC50 of 24.7 nM.
Work on `CC1(C)CC(C[C@@H](C=O)NC(=O)[C@H](CC2CCCCC2)NC(=O)OC(Cc2cccc(Cl)c2)c2cccc(Cl)c2)C(=O)N1` (stereo partly drawn) [Compound C162, 1,2-Bis(3-Chlorophenyl)ethyl ((2S)-3-cyclohexyl-1-((1-(5,5-dimethyl-2-oxopyrrolidin-3-yl)-3-oxopropan-2-yl)amino)-1-oxopropan-2-yl)carbamate] yielded an IC50 of 92.2 nM.
With `CC(C)C[C@H](NC(=O)OC(c1ccccc1)C(C)(C)c1cccc(Cl)c1)C(=O)N[C@@H](CC1CC(C)(C)NC1=O)C(=O)C(=O)NC1CC1` (stereo partly drawn) [Compound C163, 2-(3-Chlorophenyl)-2-methyl-1-phenylpropyl ((2S)-1-((4-(cyclopropylamino)-1-(5,5-dimethyl-2-oxopyrrolidin-3-yl)-3,4-dioxobutan-2-yl)amino)-4-methyl-1-oxopentan-2-yl) carbamate] the IC50 was 1810 nM.
In the case of `CCCC[C@H](NC(=O)OC(c1ccccc1)C(C)(C)c1cccc(Cl)c1)C(=O)N[C@@H](CC1CCNC1=O)C(=O)C(N)=O` (stereo partly drawn) [Compound C164, 2-(3-Chlorophenyl)-2-methyl-1-phenylpropyl ((S)-1-(((S)-4-amino-3,4-dioxo-1-((S)-2-oxopyrrolidin-3-yl)butan-2-yl)amino)-1-oxohexan-2-yl) carbamate], the IC50 is reported as 144 nM.
`O=C[C@H](CC1CC2(CCCC2)NC1=O)NC(=O)[C@H](CC1CCCCC1)NC(=O)OC1CCCC1Cc1cccc(Cl)c1` (stereo partly drawn) [Compound C165, 2-(3-chlorobenzyl)cyclopentyl ((2S)-3-cyclohexyl-1-oxo-1-((1-oxo-3-(2-oxo-1-azaspiro[4.4]nonan-3-yl)propan-2-yl)amino)propan-2-yl)carbamate] showed an IC50 of 106 nM.
Compound `CC(C)C[C@H](NC(=O)OC(c1ccccc1)C(C)(C)c1cccc(Cl)c1)C(=O)N[C@@H](C[C@@H]1CCNC1=O)C(=O)C(=O)NC1CC1` (stereo partly drawn) [Compound C166, 2-(3-Chlorophenyl)-2-methyl-1-phenylpropyl ((S)-1-(((S)-4-(cyclopropylamino)-3,4-dioxo-1-((S)-2-oxopyrrolidin-3-yl)butan-2-yl)amino)-4-methyl-1-oxopentan-2-yl)carbamate] has an IC50 of 14 nM.
`CC1(C)CC(C[C@H](NC(=O)[C@H](CC2CCCCC2)NC(=O)OC2CCCC2Cc2cccc(Cl)c2)C(=O)C(=O)NC2CC2)C(=O)N1` (stereo partly drawn) [Compound C167, 2-(3-Chlorobenzyl)cyclopentyl ((2S)-3-cyclohexyl-1-((4-(cyclopropylamino)-1-(5,5-dimethyl-2-oxopyrrolidin-3-yl)-3,4-dioxobutan-2-yl)amino)-1-oxopropan-2-yl)carbamate] was tested, and the IC50 was 2050 nM.
Work on `O=C(N[C@@H](CC1CCCCC1)C(=O)N[C@@H](CC1CC2(CCCCC2)NC1=O)C(=O)CO)OCc1cccc(Cl)c1` (stereo partly drawn) [Compound C168, 3-Chlorobenzyl ((2S)-3-cyclohexyl-1-(((2S)-4-hydroxy-3-oxo-1-(2-oxo-1-azaspiro[4.5]decan-3-yl)butan-2-yl)amino)-1-oxopropan-2-yl)carbamate] yielded an IC50 of 5440 nM.
In the case of `CC(C)C[C@H](NC(=O)OC1(Cc2cccc(Cl)c2)CCC1)C(=O)N[C@@H](CC1CC2(CCOCC2)NC1=O)C(=O)C(=O)NC1CC1` (stereo partly drawn) [Compound C169, 1-(3-chlorobenzyl)cyclobutyl ((2S)-1-((4-(cyclopropylamino)-3,4-dioxo-1-(2-oxo-8-oxa-1-azaspiro[4.5]decan-3-yl)butan-2-yl)amino)-4-methyl-1-oxopentan-2-yl)carbamate], the IC50 is reported as 5990 nM.
Work on `CS(=O)(=O)N1CCC2(CC1)CC(C[C@H](NC(=O)[C@H](CC1CCCCC1)NC(=O)OCc1cccc(Cl)c1)C(=O)C(=O)NC1CC1)C(=O)N2` (stereo partly drawn) [Compound C170, 3-Chlorobenzyl ((2S)-3-cyclohexyl-1-(((2S)-4-(cyclopropylamino)-1-(8-(methylsulfonyl)-2-oxo-1,8-diazaspiro[4.5]decan-3-yl)-3,4-dioxobutan-2-yl)amino)-1-oxopropan-2-yl)carbamate] yielded an IC50 of 1840 nM.
`O=C(N[C@@H](CC1CCCCC1)C(=O)N[C@@H](CC1CC2(CCCCC2)NC1=O)C(=O)C(=O)N1CCCC1)c1cc2ccccc2[nH]1` (stereo partly drawn) [Compound C171, N-((2S)-3-cyclohexyl-1-((3,4-dioxo-1-(2-oxo-1-azaspiro[4.5]decan-3-yl)-4-(pyrrolidin-1-yl)butan-2-yl)amino)-1-oxopropan-2-yl)-1H-indole-2-carboxamide] showed an IC50 of 11000 nM.
Compound `CC1(C)CC(C[C@H](NC(=O)[C@H](CC2CCCCC2)NC(=O)OC(Cc2cccc(Cl)c2)c2cccc(Cl)c2)C(=O)C(=O)NC2CC2)C(=O)N1` (stereo partly drawn) [Compound C172, 1,2-Bis (3-Chlorophenyl) ethyl ((2S)-3-cyclohexyl-1-((4-(cyclopropylamino)-1-(5,5-dimethyl-2-oxopyrrolidin-3-yl)-3,4-dioxobutan-2-yl)amino)-1-oxopropan-2-yl)carbamate] has an IC50 of 1670 nM.
